Assays:
human OX1 receptor = target: T1, human OX1 receptor (Homo sapiens, UniProt O43613); assay: Measurement of orexin receptor antagonistic activity (calcium fluorescence, FLIPRtetra); type: cell-based; details: 10 μM test compound, CHO cells expressing human OX1 receptor, OX-A 1 nM; for inhibition at 10 µM: CHO, read-out: Human Orexin1 receptor inhibition (at 10 μM)
T1 construct: expressed in transfected cells; host or cells: CHO cells
T1 sequence (O43613 1-425): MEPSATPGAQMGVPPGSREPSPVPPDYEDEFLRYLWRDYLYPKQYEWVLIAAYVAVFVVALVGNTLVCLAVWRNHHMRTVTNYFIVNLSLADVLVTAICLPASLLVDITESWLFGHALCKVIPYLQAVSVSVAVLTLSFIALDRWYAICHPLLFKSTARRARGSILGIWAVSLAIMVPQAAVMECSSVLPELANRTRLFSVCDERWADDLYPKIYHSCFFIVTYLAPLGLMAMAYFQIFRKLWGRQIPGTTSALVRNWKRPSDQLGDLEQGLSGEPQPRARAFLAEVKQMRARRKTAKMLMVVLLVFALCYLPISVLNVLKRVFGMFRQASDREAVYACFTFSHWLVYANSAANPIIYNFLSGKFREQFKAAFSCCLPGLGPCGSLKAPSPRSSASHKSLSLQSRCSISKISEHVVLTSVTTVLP
Method in brief: (§1)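 CHO cells expressing human OX1 or OX2 receptor, cultured one day. Compound in HBSS/20 mM HEPES/0.1% BSA added, then orexin-A at 1 nM final (OX1) or 0.3 nM final (OX2); calcium fluorescence by FLIPRtetra every 1 s for 2 min.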

human OX2 receptor = target: T2, human OX2 receptor (Homo sapiens, UniProt O43614); assay: as above; type: cell-based; details: 10 μM test compound, CHO cells expressing human OX2 receptor, OX-A 0.3 nM; for inhibition at 10 µM: CHO, read-out: Human Orexin2 receptor inhibition (at 10 μM)
T2 construct: expressed in transfected cells; host or cells: CHO cells
T2 sequence (O43614 1-444): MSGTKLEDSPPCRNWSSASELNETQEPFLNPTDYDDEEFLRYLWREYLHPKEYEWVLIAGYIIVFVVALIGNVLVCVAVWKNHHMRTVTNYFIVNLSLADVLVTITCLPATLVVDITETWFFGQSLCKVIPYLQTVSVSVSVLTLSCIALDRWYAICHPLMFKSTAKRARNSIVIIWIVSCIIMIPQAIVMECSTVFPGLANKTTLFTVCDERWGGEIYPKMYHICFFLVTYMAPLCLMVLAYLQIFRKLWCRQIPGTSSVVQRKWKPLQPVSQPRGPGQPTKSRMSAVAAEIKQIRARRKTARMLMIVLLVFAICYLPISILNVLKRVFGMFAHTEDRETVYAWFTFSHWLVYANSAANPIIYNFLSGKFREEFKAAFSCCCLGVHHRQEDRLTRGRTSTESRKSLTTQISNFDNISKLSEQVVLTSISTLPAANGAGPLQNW
Method in brief: as §1

Row | SMILES | inhibition at 10 µM (human OX1 receptor) | inhibition at 10 µM (human OX2 receptor) | Human Orexin1 receptor inhibition (at 10 μM) (human OX1 receptor) | Human Orexin2 receptor inhibition (at 10 μM) (human OX2 receptor)
1 | Cc1ccc(-n2nccn2)c(C(=O)N2[C@H](C)CON(c3cc(C(F)F)nc(C)n3)C[C@@H]2C)c1 [Example 179, ((4S,6R)-2-(6-(difluoromethyl)-2-methylpyrimidin-4-yl)-4,6-dimethyl-1,2,5-oxadiazepan-5-yl) (5-methyl-2-(2H-1,2,3-triazol-2-yl)phenyl)methanone] | 102% | 98% | – | –
2 | Cc1nc(C(F)F)cc(N2C[C@H](C)N(C(=O)c3cc(F)ccc3-n3nccn3)[C@H](C)CO2)n1 [Example 180, ((4S,6R)-2-(6-(difluoromethyl)-2-methylpyrimidin-4-yl)-4,6-dimethyl-1,2,5-oxadiazepan-5-yl)(5-fluoro-2-(2H-1,2,3-triazol-2-yl)phenyl)methanone] | 90% | 101% | – | –
3 | Cc1nc(N2C[C@H](C)N(C(=O)c3cc(F)ccc3-n3nccn3)[C@H](C)CO2)cc(C(F)(F)F)n1 [Example 181, ((4S,6R)-4,6-dimethyl-2-(2-methyl-6-(trifluoromethyl)pyrimidin-4-yl)-1,2,5-oxadiazepan-5-yl)(5-fluoro-2-(2H-1,2,3-triazol-2-yl)phenyl)methanone] | 70% | 83% | – | –
4 | Cc1nc(C(F)F)cc(N2C[C@H](C)N(C(=O)c3cc(Cl)ccc3-n3nccn3)[C@H](C)CO2)n1 [Example 182, (5-chloro-2-(2H-1,2,3-triazol-2-yl)phenyl)((4S,6R)-2-(6-(difluoromethyl)-2-methylpyrimidin-4-yl)-4,6-dimethyl-1,2,5-oxadiazepan-5-yl)methanone] | 100% | 98% | – | –
5 | Cc1nc(N2C[C@H](C)N(C(=O)c3cc(Cl)ccc3-n3nccn3)[C@H](C)CO2)cc(C(F)(F)F)n1 [Example 183, (5-chloro-2-(2H-1,2,3-triazol-2-yl)phenyl)((4S,6R)-4,6-dimethyl-2-(2-methyl-6-(trifluoromethyl)pyrimidin-4-yl)-1,2,5-oxadiazepan-5-yl)methanone] | 105% | 103% | – | –
6 | Cc1nccc(N2C[C@H](C)N(C(=O)c3ccccc3-c3nccs3)[C@H](C)CO2)n1 [Example 184, ((4S,6R)-4,6-dimethyl-2-(2-methylpyrimidin-4-yl)-1,2,5-oxadiazepan-5-yl)(2-(1,3-thiazol-2-yl)phenyl)methanone] | 100% | 102% | – | –
7 | Cc1cc(N2C[C@@H](C)N(C(=O)c3ccccc3-n3nccn3)[C@@H](C)CO2)nc(C)n1 [Example 185, ((4R,6S)-2-(2,6-dimethylpyrimidin-4-yl)-4,6-dimethyl-1,2,5-oxadiazepan-5-yl)(2-(2H-1,2,3-triazol-2-yl)phenyl)methanone] | 22% | 31% | – | –
8 | Cc1cc(N2C[C@@H](C)N(C(=O)c3ccccc3-c3nccs3)[C@@H](C)CO2)nc(C)n1 [Example 186, ((4R,6S)-2-(2,6-dimethylpyrimidin-4-yl)-4,6-dimethyl-1,2,5-oxadiazepan-5-yl)(2-(1,3-thiazol-2-yl)phenyl)methanone] | 23% | 66% | – | –
9 | Cc1cc(N2CC(C)N(C(=O)c3ccccc3-n3nccn3)CCO2)nc(C)n1 (stereo not shown) [Example 187, (2-(2,6-dimethylpyrimidin-4-yl)-4-methyl-1,2,5-oxadiazepan-5-yl)(2-(2H-1,2,3-triazol-2-yl)phenyl)methanone] | 100% | 103% | – | –
10 | Cc1cc(N2OCCN(C(=O)c3ccccc3-n3nccn3)CC2C)nc(C)n1 (stereo not shown) [Example 188, (2-(2,6-dimethylpyrimidin-4-yl)-3-methyl-1,2,5-oxadiazepan-5-yl)(2-(2H-1,2,3-triazol-2-yl)phenyl)methanone] | 13% | 29% | – | –
11 | Cc1cc(N2CC(C)N(C(=O)c3ccccc3-n3nccn3)C[C@H](C)O2)nc(C)n1 (stereo partly drawn) [Example 189, ((7S)-2-(2,6-dimethylpyrimidin-4-yl)-4,7-dimethyl-1,2,5-oxadiazepan-5-yl)(2-(2H-1,2,3-triazol-2-yl)phenyl)methanone] | 37% | 57% | – | –
12 | Cc1cc(N2C[C@H](C)N(C(=O)c3ccccc3-n3nccn3)CC(C)O2)nc(C)n1 (stereo partly drawn) [Example 190, ((4S)-2-(2,6-dimethylpyrimidin-4-yl)-4,7-dimethyl-1,2,5-oxadiazepan-5-yl)(2-(2H-1,2,3-triazol-2-yl)phenyl)methanone] | 107% | 111% | – | –
13 | Cc1cc(N2C[C@H](C)N(C(=O)c3ccccc3-n3nccn3)CC(C)O2)nc(C)n1 (stereo partly drawn) [Example 191, ((4S)-2-(2,6-dimethylpyrimidin-4-yl)-4,7-dimethyl-1,2,5-oxadiazepan-5-yl)(2-(2H-1,2,3-triazol-2-yl)phenyl)methanone] | – | – | 106% | 109%
14 | Cc1cc(N2CCN(C(=O)c3ccccc3-n3nccn3)C(C)C(C)O2)nc(C)n1 (stereo not shown) [Example 192, (2-(2,6-dimethylpyrimidin-4-yl)-6,7-dimethyl-1,2,5-oxadiazepan-5-yl)(2-(2H-1,2,3-triazol-2-yl)phenyl)methanone] | – | 101% | 64% | –
15 | Cc1cc(N2CCN(C(=O)c3ccccc3-n3nccn3)C(C)C(C)O2)nc(C)n1 (stereo not shown) [Example 193, (2-(2,6-dimethylpyrimidin-4-yl)-6,7-dimethyl-1,2,5-oxadiazepan-5-yl)(2-(2H-1,2,3-triazol-2-yl)phenyl)methanone] | – | – | 89% | 103%
16 | Cc1cc(N2CCN(C(=O)c3cc(Cl)ccc3-n3nccn3)[C@H](C)CO2)nc(C)n1 [Example 194, (5-chloro-2-(2H-1,2,3-triazol-2-yl)phenyl)((6R)-2-(2,6-dimethylpyrimidin-4-yl)-6-methyl-1,2,5-oxadiazepan-5-yl)methanone] | 66% | 100% | – | –
17 | Cc1cc(N2CCN(C(=O)c3cc(Cl)ccc3-c3ncccn3)[C@H](C)CO2)nc(C)n1 [Example 195, (5-chloro-2-(pyrimidin-2-yl)phenyl)((6R)-2-(2,6-dimethylpyrimidin-4-yl)-6-methyl-1,2,5-oxadiazepan-5-yl)methanone] | 81% | 102% | – | –
18 | Cc1ccc(-c2ncccn2)c(C(=O)N2CCN(c3cc(C)nc(C)n3)O[C@@H](C)C2)c1 [Example 196, ((7S)-2-(2,6-dimethylpyrimidin-4-yl)-7-methyl-1,2,5-oxadiazepan-5-yl)(5-methyl-2-(pyrimidin-2-yl)phenyl)methanone] | 89% | 100% | – | –
19 | Cc1cc(N2CCN(C(=O)c3cc(Cl)ccc3-c3ncccn3)C[C@H](C)O2)nc(C)n1 [Example 197, (5-chloro-2-(pyrimidin-2-yl)phenyl)((7S)-2-(2,6-dimethylpyrimidin-4-yl)-7-methyl-1,2,5-oxadiazepan-5-yl)methanone] | 96% | 102% | – | –
20 | Cc1cc(N2CCN(C(=O)c3cc(F)c(F)cc3-c3ncccn3)C[C@H](C)O2)nc(C)n1 [Example 198, (4,5-difluoro-2-(pyrimidin-2-yl)phenyl)((7S)-2-(2,6-dimethylpyrimidin-4-yl)-7-methyl-1,2,5-oxadiazepan-5-yl)methanone] | 80% | 98% | – | –
21 | Cc1cc(N2CCN(C(=O)c3cc(C(F)(F)F)ccc3-n3nccn3)C[C@H](C)O2)nc(C)n1 [Example 199, ((7S)-2-(2,6-dimethylpyrimidin-4-yl)-7-methyl-1,2,5-oxadiazepan-5-yl)(2-(2H-1,2,3-triazol-2-yl)-5-(trifluoromethyl)phenyl)methanone] | 42% | 100% | – | –
22 | Cc1cc(N2CCN(C(=O)c3ccc(Cl)cc3-n3nccn3)C[C@H](C)O2)nc(C)n1 [Example 200, (4-chloro-2-(2H-1,2,3-triazol-2-yl)phenyl)((7S)-2-(2,6-dimethylpyrimidin-4-yl)-7-methyl-1,2,5-oxadiazepan-5-yl)methanone] | 83% | 100% | – | –
23 | CCc1ccc(-n2nccn2)c(C(=O)N2CCN(c3cc(C)nc(C)n3)O[C@@H](C)C2)c1 [Example 201, ((7S)-2-(2,6-dimethylpyrimidin-4-yl)-7-methyl-1,2,5-oxadiazepan-5-yl)(5-ethyl-2-(2H-1,2,3-triazol-2-yl)phenyl)methanone] | 60% | 101% | – | –
